Experimental data from US20050256304A1, “Modified factor VIII” (priority 2002, published 2005).

Key:
[1] = tested on: T-cells derived from haemophiliac patients; assay: T-cell proliferation with FVIII specific T cell lines from haemophiliac patients; type: cell-based, human; details: T-cells from haemophiliac blood
Excerpt: In a further embodiment of this approach, the inventors have provided a method whereby the FVIII sequence is scanned for the presence and location of T-cell epitopes using ex vivo biological T-cell assays where the T-cells are derived from haemophiliac patients. For a proportion of such patients the FVIII protein constitutes a foreign protein and a potent antigen in vivo. The inventors have established that it is possible to derive polyclonal and in principle mononclonal T-cell lines in vitro from the PBMC of such individuals and these lines may be used as effective reagents in the mapping of T-cell epitopes within the FVIII protein. […]
In the present case in the synthetic peptides were analysed using a system of pools each containing 8 different peptide sequences. […] These cells are stimulated with antigen (e.g. synthetic peptide or whole protein) using most preferably autologous antigen presenting cells as previously for around 4 days and the subsequent proliferative response (if any) is measured thereafter. […] In this way any individual T-cell epitope is represented in 2 separate pools and induced proliferation will be detected from treatments using both of those pools. Where a proliferative response is detected to any given peptide pool, the peptide pool is decoded repeating the assay using the individual pool members in isolation. […]

naïve human T-cells = assay: Naïve T cell epitope map: ex vivo T-cell proliferation using PBMC from healthy donors; type: cell-based; details: cells of a healthy non haemophiliac individual
Excerpt: This approach has proven to be a particularly effective method and is disclosed herein as an embodiment of the invention. The method can be applied to test part of the sequence, for example a FVIII protein lacking all or part of the B-domain; the method can be applied to selected regions of the sequence, for example a sub-set of FVIII peptides such as all or some of those listed in FIG. 1; or the method may be applied to test whole FVIII sequence. In the present studies, the method has involved the testing of overlapping FVIII-derived peptide sequences in a scheme so as to scan and test a FVIII sequence lacking the B-domain. The synthetic peptides are tested for their ability to evoke a proliferative response in human T-cell cultured in vitro. […] The stimulation index is conventionally derived by division of the proliferation score (e.g. counts per minute of radioactivity if using ^3H-thymidine incorporation) measured to the test peptide by the score measured in cells not contacted with a test peptide.
Blood from 40 healthy HLA-DR typed donors was used to isolate PBMC which were used to screen individual FVIII peptides at two concentrations (1 and 5 μM). […] MHC allotypes were detected using
PBMC contain physiological numbers of naïve T cells and antigen presenting cells. […] Cultures were harvested onto filtermats and the cpm/well was determined using a Wallac Microplate Beta counter.

Sequence | proliferation of ex vivo T-cells [1] | proliferation of ex vivo T-cells (naïve human T-cells)
IARYIRLHPTHYSIRSTLRM [Peptide P11] | active | –
ISQFIIMYSLDGKKW [Peptide P10] | able to evoke proliferation of ex vivo T-cells | able to evoke proliferation of ex vivo T-cells
